Test results taken from patent publication US20100267784A1, “NOVEL 4,5-DIHYDROISOXAZOLES WITH ESTROGENIC ACTIVITY” (priority 2007, published 2010).

Key:
ERα [1] = target: T1, ERα (Homo sapiens, UniProt P03372); assay: ERα antagonism reporter (luciferase) assay in transfected COS-1 cells; type: cell-based; set-up: expressed in transfected cells; host or cells: COS-1; conditions: sample concentration 10 μM with 100 nM E2, complete antagonism corresponding to 5.7, 18 hours
T1 sequence (P03372 1-595): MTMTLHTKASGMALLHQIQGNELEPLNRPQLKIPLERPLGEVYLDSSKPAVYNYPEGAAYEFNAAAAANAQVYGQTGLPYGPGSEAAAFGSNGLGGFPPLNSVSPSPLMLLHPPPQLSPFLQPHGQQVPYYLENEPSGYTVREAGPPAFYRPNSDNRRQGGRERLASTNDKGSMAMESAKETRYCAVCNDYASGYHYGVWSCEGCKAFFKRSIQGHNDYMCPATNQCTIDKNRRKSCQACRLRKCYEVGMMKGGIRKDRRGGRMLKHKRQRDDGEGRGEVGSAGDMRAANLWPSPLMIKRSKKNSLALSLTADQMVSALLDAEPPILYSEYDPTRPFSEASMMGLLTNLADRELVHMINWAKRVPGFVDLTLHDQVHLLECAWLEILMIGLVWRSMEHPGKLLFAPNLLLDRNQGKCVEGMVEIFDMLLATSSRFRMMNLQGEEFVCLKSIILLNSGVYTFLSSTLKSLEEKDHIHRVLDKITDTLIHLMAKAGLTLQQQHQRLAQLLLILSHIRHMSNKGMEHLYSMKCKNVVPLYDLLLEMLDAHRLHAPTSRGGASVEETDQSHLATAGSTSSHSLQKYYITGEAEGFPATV
Experimental: Determination of the Antiestrogen Activity of the Compounds.
One day before transfection, COS-1 cells were seeded into 1 ml of DMEM (Dulbecco's modified Eagle medium, Gibco) with 10% delipidated fetal bovine serum and 0,25% (vol/vol) Penicillin-Streptomysin (Euroclone) at a density of 70×10^3 cells/well. […] After transfection, the cells received treatment with test compounds giving a final concentration of 10 μM for each compound. In the antagonist test the wells were also treated with 10^−7 M estradiol. After 18 hours, the cells were washed, lysed and assayed for luciferase and normalization for β-galactosidase activities and protein concentrations. The cells were washed with 100 μl of cold phosphate buffered saline (PBS), lysed with 35 μl 1× Reporter lysis Buffer (Promega) and frosted (−70° C.) for 30 minutes. Cell lysates were placed in 1.5 ml of propylene centrifuge tubes and centrifuged with 13200 g for 5 min in room temperature. For β-galactosidase assay 10 μl of supernatant from each cell extract was transferred to a 96-well plate (96 well Elisa Microplates, PS, Microcon) and incubated for 10 min at 37° C. with 65 μl of reaction mixture consisting 0.76 gl 100×Mg-buffer, 12.5 μl ONPG (4 mg/ml), and 54.3 μl of sodium-phosphate buffer (pH 7). The reaction was stopped with treatment of 125 μl Na2CO3. […] For the study of protein concentrations 5 μl of the supernatant was transferred to a 96-well plate (96 well Elisa Microplates, PS, Microcon) and mixed with 200 μl of 1× Bio-rad protein assay reagent. The luciferase activities were measured with Thermo Luminoscan Ascent scanner and the protein concentrations and β-galactosidase activities with Thermo Labsystem Multiscan Ex scanner. Also blank and control samples were measured. During the maintenance, transfection, and treatment with tested compounds the cells were incubated in humidified atmosphere with 5% carbon dioxide at 37° C.

ERα [2] = target: T1, ERα; assay: ERα reporter (luciferase) transactivation assay in transfected HEK293 cells; type: cell-based; set-up: expressed in transfected cells; host or cells: HEK293; conditions: sample concentration 10 μM, 24 hours, mean of at least three independent transfections
Procedure, shortened: (§1)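 HEK293 cells in phenol-free DMEM with 5% delipidated FBS were calcium-phosphate transfected for 4 h with ERα or ERβ vector, pERE2TATA-LUC reporter and pCMVβ control. Test compound (10 μM) or vehicle was applied for 24 h, then luciferase and β-galactosidase were measured. Values are means ±SEM of ≥3 transfections.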

ERβ [3] = target: T2, ERβ (Homo sapiens, UniProt Q92731); assay: ERβ reporter (luciferase) transactivation assay in transfected HEK293 cells; type: cell-based; set-up: expressed in transfected cells; host or cells: HEK293; conditions: for ERβ receptor activation relative to 10 nM E2 corresponding 100: sample concentration 10 μM, 24 hours, mean of at least three independent transfections
T2 sequence (Q92731 whole entry): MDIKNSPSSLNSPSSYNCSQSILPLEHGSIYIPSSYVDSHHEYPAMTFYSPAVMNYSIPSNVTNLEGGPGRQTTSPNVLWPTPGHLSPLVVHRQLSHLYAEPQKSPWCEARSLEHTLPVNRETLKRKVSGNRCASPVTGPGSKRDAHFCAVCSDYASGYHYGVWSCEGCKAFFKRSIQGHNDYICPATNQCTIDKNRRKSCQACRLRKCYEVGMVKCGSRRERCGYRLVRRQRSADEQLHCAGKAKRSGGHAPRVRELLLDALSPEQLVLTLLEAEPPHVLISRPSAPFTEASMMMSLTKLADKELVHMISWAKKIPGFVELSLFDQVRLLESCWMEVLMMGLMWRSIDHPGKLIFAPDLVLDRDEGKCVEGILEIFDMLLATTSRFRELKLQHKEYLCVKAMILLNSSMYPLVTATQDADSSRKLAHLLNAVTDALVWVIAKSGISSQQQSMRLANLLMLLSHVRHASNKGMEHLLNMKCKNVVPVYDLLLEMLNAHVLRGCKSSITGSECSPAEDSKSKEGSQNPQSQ
Procedure, shortened: as §1

ERα [4] = target: T1, ERα; assay: Competitive binding against [6,7-3H(N)]estradiol in COS-1 cells transfected with human ERα; conditions: for IC50: ERα IC50, COS-1 cells, competition against labeled E2, 2 hours at 37° C.; for ERα RBA (relative binding affinity): relative to E2 = 100.0
Experimental: (§2) Determination of Relative Binding Affinity (RBA).
(§3) Relative binding affinities (RBA) were measured by a competitive assay against [6,7-^3H(N)]estradiol (PerkinElmer) in transsiently transfected COS-1 cells. […] After 2 hours of incubation at 37° C. the medium was removed. The cells were removed from the wells to 150 μl of 1× phosphate buffered saline (PBS), transferred to Eppendorf tubes and centrifuged at 4° C. using 4000 g for 5 min, and then washed twice with 150 μl of PBS. The cell pellets were dissolved to 50 μl of 0.5M NaOH and incubated for 15 min at 56° C., after which the samples were transferred to liquid twinkle tubes and treated with 3 ml of OptiPhase HiSafe 3 twinkle solution (PerkinElmer).

ERβ [5] = target: T2, ERβ; assay: Competitive binding against [6,7-3H(N)]estradiol in COS-1 cells transfected with human ERβ; conditions: for IC50: ERβ IC50, COS-1 cells, competition against labeled E2, 2 hours at 37° C.; for ERβ RBA (relative binding affinity): relative to E2 = 100.0
Experimental: as §2, §3

Row | Structure (SMILES) | ERα receptor antagonism relative to 100 nM E2 corresponding 100 (ERα [1]) | ERα receptor activation relative to 10 nM E2 corresponding 100 (ERα [2]) [%] | ERβ receptor activation relative to 10 nM E2 corresponding 100 (ERβ [3]) [%] | IC50 (ERα [4]) [nM] | ERα RBA (relative binding affinity) (ERα [4]) [%] | IC50 (ERβ [5]) [nM] | ERβ RBA (relative binding affinity) (ERβ [5]) [%] | melting point [°C] | activation at 10 µM (ERβ [3]; HEK293, 24 h, read-out: ERβ receptor activation relative to 10 nM E2 corresponding 100, sample concentration 10 μM, mean of at least three independent transfections) [%]
1 | Oc1ccc(CC2=NOC(c3ccccc3)C2)cc1 (single isomer, unassigned) [84a, 3-(4-Hydroxy-benzyl)-5-phenyl-4,5-dihydro-isoxazole] | 93.6 | 4.8 | 0.2 | – | – | – | – | – | –
2 | Oc1ccc(CC2=NOC(c3ccccc3)C2)cc1 (single isomer, unassigned) [84b, 3-(4-Hydroxy-benzyl)-5-phenyl-4,5-dihydro-isoxazole] | 64.5 | 7.6 | 18.5 | – | – | – | – | – | –
3 | CC1(c2ccccc2)CC(CCc2ccccc2O)=NO1 (single isomer, unassigned) [85a, 3-[2-(2-Hydroxy-phenyl)-ethyl]-5-methyl-5-phenyl-4,5-dihydro-isoxazole] | 95.6 | 11.8 | −0.4 | – | – | – | – | – | –
4 | CC1(c2ccccc2)CC(CCc2ccccc2O)=NO1 (single isomer, unassigned) [85b, 3-[2-(2-Hydroxy-phenyl)-ethyl]-5-methyl-5-phenyl-4,5-dihydro-isoxazole] | 57.9 | 21.7 | 30.0 | – | – | – | – | – | –
5 | CC1(c2ccccc2)CC(CCc2cccc(O)c2)=NO1 (single isomer, unassigned) [86a, 3-[2-(3-Hydroxy-phenyl)-ethyl]-5-methyl-5-phenyl-4,5-dihydro-isoxazole] | 87.3 | 21.6 | 0.5 | – | – | – | – | – | –
6 | CC1(c2ccccc2)CC(CCc2cccc(O)c2)=NO1 (single isomer, unassigned) [86b, 3-[2-(3-Hydroxy-phenyl)-ethyl]-5-methyl-5-phenyl-4,5-dihydro-isoxazole] | 101.8 | 7.1 | −2.9 | – | – | – | – | – | –
7 | CC1(c2ccccc2)CC(CCc2ccc(O)cc2)=NO1 (single isomer, unassigned) [87a, 3-[2-(4-Hydroxy-phenyl)-ethyl]-5-methyl-5-phenyl-4,5-dihydro-isoxazole] | 63.1 | 39.7 | 18.0 | – | – | – | – | – | –
8 | Oc1ccc(CCCC2=NOC(c3ccccc3)C2)cc1 (single isomer, unassigned) [88a, 3-[3-(4-Hydroxy-phenyl)-propyl]-5-phenyl-4,5-dihydroisoxazole] | – | 103.6 | 44.7 | 12.5 | 15.68 | 2050 | 0.096 | – | –
9 | Oc1ccc(CCCC2=NOC(c3ccccc3)C2)cc1 (single isomer, unassigned) [88b, 3-[3-(4-Hydroxy-phenyl)-propyl]-5-phenyl-4,5-dihydroisoxazole] | – | 65.0 | 77.1 | 30 | 6.533 | 1250 | 0.157 | – | –
10 | CC1(c2ccccc2)CC(CCCc2ccc(O)cc2)=NO1 (single isomer, unassigned) [90a, 3-[3-(4-Hydroxy-phenyl)-propyl]-5-methyl-5-phenyl-4,5-dihydro-isoxazole] | – | 88.8 | 64.8 | 250 | 0.784 | 3100 | 0.063 | – | –
11 | CC1(c2ccccc2)CC(CCCc2ccc(O)cc2)=NO1 (single isomer, unassigned) [90b, 3-[3-(4-Hydroxy-phenyl)-propyl]-5-methyl-5-phenyl-4,5-dihydro-isoxazole] | – | 86.5 | 30.1 | 23000 | 0.009 | 20000 | 0.010 | – | –
12 | Oc1ccc(CCC2=NOC(Cc3ccccc3)C2)cc1 (single isomer, unassigned) [93a, 5-Benzyl-3-[2-(4-hydroxy-phenyl)-ethyl]-4,5-dihydro-isoxazole] | – | 171.1 | 143.1 | 215 | 0.912 | 1250 | 0.157 | – | –
13 | Oc1ccc(CCC2=NOC(Cc3ccccc3)C2)cc1 (single isomer, unassigned) [93b, 5-Benzyl-3-[2-(4-hydroxy-phenyl)-ethyl]-4,5-dihydro-isoxazole] | – | 24.3 | 41.5 | 2150 | 0.091 | 1090 | 0.180 | – | –
14 | c1ccc(CCCC2=NOC(c3ccccc3)C2)cc1 (single isomer, unassigned) [113a, 5-Phenyl-3-(3-phenyl-propyl)-4,5-dihydro-isoxazole] | – | 44.3 | −3.1 | 1900 | 0.103 | – | – | – | –
15 | c1ccc(CCCC2=NOC(c3ccccc3)C2)cc1 (single isomer, unassigned) [113b, 5-Phenyl-3-(3-phenyl-propyl)-4,5-dihydro-isoxazole] | – | 11.5 | 17.2 | 5600 | 0.035 | 5400 | 0.036 | – | –
16 | COc1ccc(C2=NOC(Cc3ccc(OC)c(OC)c3)C2)cc1 (stereo not shown) [16ab, 5-(3,4-Dimethoxybenzyl)-3-(4-methoxyphenyl)-4,5-dihydroisoxazole] | – | −4.0 | – | – | – | – | – | 88.1 to 89.2 | 7.3
17 | Oc1ccc(CCCC2=NOC(Cc3ccccc3)C2)cc1 (stereo not shown) [99ab, 5-Benzyl-3-[3-(4-hydroxy-phenyl)-propyl]-4,5-dihydro-isoxazole] | 132.9 | – | – | – | – | – | – | – | –
18 | Oc1ccc(CCCC2=NOC(Cc3ccc(O)cc3)C2)cc1 (stereo not shown) [101ab, 5-(4-Hydroxy-benzyl)-3-[3-(4-hydroxy-phenyl)-propyl]-4,5-dihydro-isoxazole] | 39.4 | – | – | – | – | – | – | – | –
19 | c1ccc(CCC2=NOC(CCc3ccccc3)C2)cc1 (stereo not shown) [compound 116, 3,5-Di-phenethyl-4,5-dihydroisoxazole] | – | – | – | – | – | – | – | 56.2 to 58 | –
